Reference: ChEMBL document CHEMBL5346882 (Eur J Med Chem, 2023)
One block for each molecule: values may come before it.

Tests used:
[1] = molecular target: Sodium- and chloride-dependent GABA transporter 1 (Mus musculus, UniProt P31648); test: Inhibition of mouse GAT1 expressed in HEK293 cells assessed as reduction in [3H]-GABA uptake incubated for 10 mins; type: cell-based
[2] = molecular target: T1, GABA transporter 4 (Mus musculus, UniProt P31650); test: Inhibition of mouse GAT4 expressed in HEK293 cells assessed as reduction in [3H]-GABA uptake incubated for 10 mins; type: cell-based
T1 sequence (P31650 whole entry): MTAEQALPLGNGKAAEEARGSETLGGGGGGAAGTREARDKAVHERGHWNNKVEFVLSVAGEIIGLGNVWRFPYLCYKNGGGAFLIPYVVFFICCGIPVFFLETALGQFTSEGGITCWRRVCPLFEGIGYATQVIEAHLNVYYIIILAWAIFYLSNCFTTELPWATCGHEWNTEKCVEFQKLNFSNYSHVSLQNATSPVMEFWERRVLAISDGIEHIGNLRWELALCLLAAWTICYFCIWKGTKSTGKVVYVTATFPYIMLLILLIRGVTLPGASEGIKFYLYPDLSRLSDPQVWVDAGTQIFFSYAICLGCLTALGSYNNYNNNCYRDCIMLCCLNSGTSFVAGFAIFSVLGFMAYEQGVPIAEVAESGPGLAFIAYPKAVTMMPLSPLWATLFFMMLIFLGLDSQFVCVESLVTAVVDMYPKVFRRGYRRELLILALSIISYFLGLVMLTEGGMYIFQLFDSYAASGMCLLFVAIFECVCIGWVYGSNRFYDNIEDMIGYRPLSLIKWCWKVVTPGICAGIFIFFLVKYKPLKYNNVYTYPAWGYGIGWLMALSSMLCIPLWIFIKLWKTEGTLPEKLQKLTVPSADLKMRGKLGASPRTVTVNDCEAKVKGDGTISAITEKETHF

[3] = Metabolic stability in human liver microsomes assessed as parent compound remaining incubated for 120 mins in presence of NADPH regeneration system by UPLC/MS analysis; type: ADME, Microsome; conditions: read-out: Stability
[4] = Drug metabolism in human liver microsomes assessed as N-dealkylation mediated metabolite formation; type: ADME, Microsome
[5] = molecular target: Cytochrome P450 3A4 (Homo sapiens, UniProt P08684); test: Inhibition of CYP3A4 (unknown origin) at 10 uM; type: ADME
[6] = molecular target: Cytochrome P450 2D6 (Homo sapiens, UniProt P10635); test: Inhibition of CYP2D6 (unknown origin) at 10 uM; type: ADME
[7] = Cmax in CD-1 mouse plasma at 10 mg/kg, ip administered as single dose and measured after 15 to 240 mins by LC-MS/MS analysis; type: ADME, organism-based; set-up: dose 10 mg/kg, time 15-240 min, route ip
[8] = Cmax in CD-1 mouse plasma at 30 mg/kg, ip administered as single dose and measured after 15 to 240 mins by LC-MS/MS analysis; type: ADME, organism-based; set-up: time upper 240 min, time lower 15 min, dose 30 mg/kg, route ip
[9] = Cmax in CD-1 mouse brain at 10 mg/kg, ip administered as single dose and measured after 15 to 240 mins by LC-MS/MS analysis; type: ADME, organism-based; set-up: time 15-240 min, dose 10 mg/kg, route ip
[10] = Cmax in CD-1 mouse brain at 30 mg/kg, ip administered as single dose and measured after 15 to 240 mins by LC-MS/MS analysis; type: ADME, organism-based; set-up: time upper 240 min, time lower 15 min, dose 30 mg/kg, route ip
[11] = Tmax in CD-1 mouse plasma at 10 mg/kg, ip administered as single dose and measured after 15 to 240 mins by LC-MS/MS analysis; type: ADME, organism-based; conditions: time 15-240 min
[12] = Tmax in CD-1 mouse plasma at 30 mg/kg, ip administered as single dose and measured after 15 to 240 mins by LC-MS/MS analysis; type: ADME, organism-based; conditions: time 15-240 min
[13] = Tmax in CD-1 mouse brain at 10 mg/kg, ip administered as single dose and measured after 15 to 240 mins by LC-MS/MS analysis; type: ADME, organism-based; conditions: time 15-240 min
[14] = Tmax in CD-1 mouse brain at 30 mg/kg, ip administered as single dose and measured after 15 to 240 mins by LC-MS/MS analysis; type: ADME, organism-based; conditions: time 15-240 min
[15] = Half life in CD-1 mouse plasma at 30 mg/kg, ip administered as single dose and measured after 15 to 240 mins by LC-MS/MS analysis; type: ADME, organism-based; conditions: time 15-240 min
[16] = AUC (0 to t) in CD-1 mouse plasma at 10 mg/kg, ip administered as single dose and measured after 15 to 240 mins by LC-MS/MS analysis; type: ADME, organism-based; set-up: time upper 240 min, dose 10 mg/kg, time lower 15 min, route ip
[17] = AUC (0 to t) in CD-1 mouse plasma at 30 mg/kg, ip administered as single dose and measured after 15 to 240 mins by LC-MS/MS analysis; type: ADME, organism-based; set-up: dose 30 mg/kg, time 15-240 min, route ip
[18] = AUC (0 to t) in CD-1 mouse brain at 10 mg/kg, ip administered as single dose and measured after 15 to 240 mins by LC-MS/MS analysis; type: ADME, organism-based; set-up: time 15-240 min, dose 10 mg/kg, route ip
[19] = AUC (0 to t) in CD-1 mouse brain at 30 mg/kg, ip administered as single dose and measured after 15 to 240 mins by LC-MS/MS analysis; type: ADME, organism-based; set-up: time upper 240 min, dose 30 mg/kg, time lower 15 min, route ip
[20] = MRT in CD-1 mouse plasma at 10 mg/kg, ip administered as single dose and measured after 15 to 240 mins by LC-MS/MS analysis; type: ADME, organism-based; conditions: time 15-240 min
[21] = MRT in CD-1 mouse plasma at 30 mg/kg, ip administered as single dose and measured after 15 to 240 mins by LC-MS/MS analysis; type: ADME, organism-based; conditions: time 15-240 min
[22] = MRT in CD-1 mouse brain at 10 mg/kg, ip administered as single dose and measured after 15 to 240 mins by LC-MS/MS analysis; type: ADME, organism-based; conditions: time 15-240 min
[23] = MRT in CD-1 mouse brain at 30 mg/kg, ip administered as single dose and measured after 15 to 240 mins by LC-MS/MS analysis; type: ADME, organism-based; conditions: time 15-240 min
[24] = Half life in CD-1 mouse plasma at 10 mg/kg, ip administered as single dose and measured after 15 to 240 mins by LC-MS/MS analysis; type: ADME, organism-based; conditions: time 15-240 min
[25] = Half life in CD-1 mouse brain at 10 mg/kg, ip administered as single dose and measured after 15 to 240 mins by LC-MS/MS analysis; type: ADME, organism-based; conditions: time 15-240 min
[26] = Half life in CD-1 mouse brain at 30 mg/kg, ip administered as single dose and measured after 15 to 240 mins by LC-MS/MS analysis; type: ADME, organism-based; conditions: time 15-240 min
[27] = Apparent clearance in CD-1 mouse plasma at 10 mg/kg, ip administered as single dose and measured after 15 to 240 mins by LC-MS/MS analysis; type: ADME, organism-based; conditions: time 15-240 min, read-out: CL(app)
[28] = Apparent clearance in CD-1 mouse plasma at 30 mg/kg, ip administered as single dose and measured after 15 to 240 mins by LC-MS/MS analysis; type: ADME, organism-based; conditions: time 15-240 min, read-out: CL(app)
[29] = Apparent volume of distribution in CD-1 mouse plasma at 10 mg/kg, ip administered as single dose and measured after 15 to 240 mins by LC-MS/MS analysis; type: ADME, organism-based; conditions: in vivo, time 15-240 min
[30] = Apparent volume of distribution in CD-1 mouse plasma at 30 mg/kg, ip administered as single dose and measured after 15 to 240 mins by LC-MS/MS analysis; type: ADME, organism-based; conditions: in vivo, time 15-240 min
[31] = molecular target: ATP-dependent translocase ABCB1 (Homo sapiens, UniProt P08183); test: Substrate activity at P-gp membranes (unknown origin) at 100 uM incubated for 40 mins by luminescent glo assay relative to control; type: ADME, cell membranes, Membrane
[32] = Ratio of brain to plasma partition coefficient in CD-1 mouse at 10 mg/kg, ip administered as single dose and measured after 15 to 240 mins by LC-MS/MS analysis; type: ADME, organism-based; conditions: time 15-240 min, read-out: BPR
[33] = Ratio of brain to plasma partition coefficient in CD-1 mouse at 30 mg/kg, ip administered as single dose and measured after 15 to 240 mins by LC-MS/MS analysis; type: ADME, organism-based; conditions: time 15-240 min, read-out: BPR
[34] = cells; conditions: Mus musculus, HEK293
Description: Inhibition of mouse GAT2 expressed in HEK293 cells assessed as reduction in [3H]-GABA uptake incubated for 10 mins

[35] = cells; conditions: Mus musculus, HEK293; remark: listed apart in the source
Description: Inhibition of mouse GAT3 expressed in HEK293 cells assessed as reduction in [3H]-GABA uptake incubated for 10 mins

[36] = molecular target: Cholinesterase (Homo sapiens, UniProt P06276); test: Inhibition of human recombinant BuChE using butyrylthiocholine iodide as substrate preincubated for 5 mins followed by substrate addition and measured every 2 mins by DTNB-reagent based Ellman's method
[37] = molecular target: Beta-secretase 1 (Homo sapiens, UniProt P56817); test: Inhibition of human recombinant BACE-1 expressed in baculovirus using swedish mutant of APP based Rh-EVNLDAEFK-quencher as substrate incubated for 60 mins by FRET assay
Sequence of Beta-secretase 1 (P56817 whole entry): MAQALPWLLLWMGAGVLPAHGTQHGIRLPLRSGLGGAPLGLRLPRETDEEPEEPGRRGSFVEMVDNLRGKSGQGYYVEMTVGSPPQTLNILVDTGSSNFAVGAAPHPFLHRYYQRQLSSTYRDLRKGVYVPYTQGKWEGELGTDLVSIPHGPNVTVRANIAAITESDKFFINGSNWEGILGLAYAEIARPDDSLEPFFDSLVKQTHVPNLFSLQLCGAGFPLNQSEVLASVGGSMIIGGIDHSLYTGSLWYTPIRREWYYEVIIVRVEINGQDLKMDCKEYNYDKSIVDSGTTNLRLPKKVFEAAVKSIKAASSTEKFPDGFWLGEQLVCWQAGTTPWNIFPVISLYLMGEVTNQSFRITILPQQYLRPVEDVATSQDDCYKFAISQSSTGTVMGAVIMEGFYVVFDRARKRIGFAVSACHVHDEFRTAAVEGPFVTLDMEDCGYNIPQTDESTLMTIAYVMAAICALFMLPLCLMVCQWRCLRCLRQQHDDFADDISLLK

Sequence of Cholinesterase (P06276 whole entry): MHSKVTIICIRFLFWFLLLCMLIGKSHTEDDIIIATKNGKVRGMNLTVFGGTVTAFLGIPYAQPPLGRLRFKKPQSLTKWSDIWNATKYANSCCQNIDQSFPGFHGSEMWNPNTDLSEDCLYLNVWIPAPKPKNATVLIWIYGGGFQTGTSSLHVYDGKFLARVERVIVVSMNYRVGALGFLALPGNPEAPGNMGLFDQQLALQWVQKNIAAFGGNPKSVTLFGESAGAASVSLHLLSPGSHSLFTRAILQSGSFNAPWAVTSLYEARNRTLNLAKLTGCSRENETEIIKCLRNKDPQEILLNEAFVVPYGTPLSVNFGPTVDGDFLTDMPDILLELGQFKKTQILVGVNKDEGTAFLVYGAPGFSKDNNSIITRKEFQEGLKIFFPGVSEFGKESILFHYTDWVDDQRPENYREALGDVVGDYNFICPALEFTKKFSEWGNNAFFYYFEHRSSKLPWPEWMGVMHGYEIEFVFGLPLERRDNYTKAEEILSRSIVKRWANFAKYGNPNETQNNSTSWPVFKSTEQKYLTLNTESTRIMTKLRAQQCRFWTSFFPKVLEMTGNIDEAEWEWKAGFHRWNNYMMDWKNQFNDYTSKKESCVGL
Sequence of Cytochrome P450 2D6 (P10635 whole entry): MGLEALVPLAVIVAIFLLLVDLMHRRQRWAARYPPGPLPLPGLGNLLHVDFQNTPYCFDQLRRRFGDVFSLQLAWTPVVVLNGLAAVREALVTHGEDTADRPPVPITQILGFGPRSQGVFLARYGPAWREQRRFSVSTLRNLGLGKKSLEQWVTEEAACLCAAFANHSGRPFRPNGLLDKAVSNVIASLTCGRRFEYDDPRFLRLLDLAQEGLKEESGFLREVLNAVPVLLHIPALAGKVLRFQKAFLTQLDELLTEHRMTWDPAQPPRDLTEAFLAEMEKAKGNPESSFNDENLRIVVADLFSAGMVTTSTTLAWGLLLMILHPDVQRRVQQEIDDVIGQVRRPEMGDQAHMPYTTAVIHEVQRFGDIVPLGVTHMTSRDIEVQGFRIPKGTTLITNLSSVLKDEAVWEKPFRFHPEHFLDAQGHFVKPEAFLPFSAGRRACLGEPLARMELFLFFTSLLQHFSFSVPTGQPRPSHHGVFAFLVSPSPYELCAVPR
Sequence of Cytochrome P450 3A4 (P08684 whole entry): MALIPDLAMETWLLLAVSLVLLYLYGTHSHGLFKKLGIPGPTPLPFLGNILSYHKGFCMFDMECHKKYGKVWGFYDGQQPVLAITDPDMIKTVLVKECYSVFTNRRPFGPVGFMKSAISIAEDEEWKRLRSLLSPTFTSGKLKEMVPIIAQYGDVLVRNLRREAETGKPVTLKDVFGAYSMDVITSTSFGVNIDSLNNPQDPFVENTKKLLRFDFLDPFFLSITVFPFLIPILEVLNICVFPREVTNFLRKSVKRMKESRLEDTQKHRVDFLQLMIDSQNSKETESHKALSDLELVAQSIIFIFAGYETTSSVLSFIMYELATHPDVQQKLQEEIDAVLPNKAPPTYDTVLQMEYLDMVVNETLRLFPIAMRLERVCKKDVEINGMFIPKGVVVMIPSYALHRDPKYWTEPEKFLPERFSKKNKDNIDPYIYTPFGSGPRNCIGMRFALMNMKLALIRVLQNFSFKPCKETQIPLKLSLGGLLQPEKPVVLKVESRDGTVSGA
Sequence of ATP-dependent translocase ABCB1 (P08183 whole entry): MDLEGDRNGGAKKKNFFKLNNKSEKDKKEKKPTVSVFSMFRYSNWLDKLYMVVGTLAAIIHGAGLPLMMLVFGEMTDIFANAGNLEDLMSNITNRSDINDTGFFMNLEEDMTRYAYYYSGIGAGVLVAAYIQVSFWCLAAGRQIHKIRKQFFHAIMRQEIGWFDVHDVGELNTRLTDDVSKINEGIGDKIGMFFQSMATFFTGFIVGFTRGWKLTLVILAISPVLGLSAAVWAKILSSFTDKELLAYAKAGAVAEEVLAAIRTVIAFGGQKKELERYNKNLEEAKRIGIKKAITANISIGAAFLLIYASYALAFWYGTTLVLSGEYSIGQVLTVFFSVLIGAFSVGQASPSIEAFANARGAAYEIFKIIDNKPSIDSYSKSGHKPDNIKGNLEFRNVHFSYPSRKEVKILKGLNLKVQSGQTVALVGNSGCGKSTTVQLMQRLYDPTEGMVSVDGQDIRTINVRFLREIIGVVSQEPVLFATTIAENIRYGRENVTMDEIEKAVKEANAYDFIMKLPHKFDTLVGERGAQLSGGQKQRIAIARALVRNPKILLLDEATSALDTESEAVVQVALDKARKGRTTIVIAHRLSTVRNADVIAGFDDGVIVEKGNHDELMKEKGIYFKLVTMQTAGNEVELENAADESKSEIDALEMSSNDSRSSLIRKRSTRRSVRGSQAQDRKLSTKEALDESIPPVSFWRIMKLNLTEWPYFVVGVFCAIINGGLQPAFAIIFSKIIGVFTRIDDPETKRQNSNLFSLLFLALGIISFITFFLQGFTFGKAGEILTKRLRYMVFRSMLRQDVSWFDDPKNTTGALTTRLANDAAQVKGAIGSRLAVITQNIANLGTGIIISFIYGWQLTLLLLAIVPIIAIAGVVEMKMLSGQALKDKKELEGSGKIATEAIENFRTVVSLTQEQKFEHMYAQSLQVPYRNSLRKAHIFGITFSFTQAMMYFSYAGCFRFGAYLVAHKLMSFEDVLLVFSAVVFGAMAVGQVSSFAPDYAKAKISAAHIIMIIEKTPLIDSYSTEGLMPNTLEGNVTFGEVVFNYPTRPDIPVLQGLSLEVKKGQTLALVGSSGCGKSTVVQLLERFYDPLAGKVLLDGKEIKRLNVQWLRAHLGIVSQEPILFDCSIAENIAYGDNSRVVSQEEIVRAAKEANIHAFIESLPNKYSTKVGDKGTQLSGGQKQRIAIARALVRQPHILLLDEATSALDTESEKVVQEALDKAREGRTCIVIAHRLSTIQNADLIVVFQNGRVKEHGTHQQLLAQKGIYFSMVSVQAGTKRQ

IC50 [1]: > 10 µM
IC50 [2]: > 10 µM
remaining at 2 h [3]: > 80%
Drug metabolism [4]: Metabolite_Detected
inhibition (INH) [5]: Active
inhibition (INH) [6]: Active
Cmax [7]: 192 ng/mL
Cmax [8]: 312 ng/mL
Cmax [9]: 27.4 ng/mL
Cmax [10]: 44.3 ng/mL
Tmax [11]: 15 min
Tmax [12]: 15 min
Tmax [13]: 15 min
Tmax [14]: 15 min
half-life [15]: 54.7 min
AUC(0-t) [16]: 247 ng·h/mL
AUC(0-t) [17]: 441 ng·h/mL
AUC(0-t) [18]: 85.1 ng·h/mL
AUC(0-t) [19]: 122 ng·h/mL
MRT [20]: 1.24 h
MRT [21]: 1.03 h
MRT [22]: 1.88 h
MRT [23]: 1.8 h
half-life [24]: 96 min
half-life [25]: 350 min
half-life [26]: 254 min
CL/F [27]: 577 mL/min/kg
CL/F [28]: 1070 mL/min/kg
Vz [29]: 80 L/kg
Vz [30]: 84.4 L/kg
Activity [31]: <= 190%
Kp [32]: 0.34
Kp [33]: 0.28
IC50 [34]: > 10 µM
IC50 [35]: > 10 µM
Compound: O=C(CC(c1ccccc1)c1ccccc1)NCC(O)CNCC1CCCCC1 (configuration not stated)

Compound: CC(C)(C)c1cccc(CNCC(O)CNCCC(c2ccccc2)c2ccccc2)c1 (configuration not stated)
IC50 [36]: 6 µM
IC50 [37]: 41 µM
